This is an account of results in US20170119806A1, “[…] LACTONE DERIVATIVES AND METHODS OF MAKING AND USING THEREOF” (OHIO STATE INNOVATION FOUNDATION, priority 2014, published 2017).

In general, IC50 refers to the point on the concentration scale where inhibition reaches its midpoint.

Series [1] relates to purified primary NK cells or NKL cells. The series can be described thus: Real-time RT-PCR of mRNA in NK cells. The conditions noted are these: 10 μM PL-C, 12 h. It is filed as cell-based, human. The protocol:
(A) Chemical structure of PL-C (phyllanthusmin C, 4), (9) Healthy donor PBMCs (left panel) or enriched NK cells (right panel) were treated with DMSO vehicle control or 10 μM PL-C for 18 h in the presence of […] (10 ng/mL) or IL-15 (100 ng/mL). The cells were harvested and analyzed by intracellular flow cytometry to determine the frequency of IFN-γ^+ cells in CD56^+CD3^− NK cells (n=8 for PBMC and n=5 for enriched NK). (C) Highly purified (≧99.5%) human primary NK cells were treated with 10 μM PL-C for 18 h to determine the levels of IFN-γ secretion by ELISA. IFN-γ secretion from treatment with PL-C alone (left panel) or in combination with IL-12 (10 ng/mL, middle panel) or IL-15 (100 ng/mL, right panel) is shown. (D) Cells were treated as described in (C) and harvested at 12 h, IFNG mRNA expression was assessed by real-time RT-PCR, and the relative IFNG mRNA expression of each treatment was normalized to untreated vehicle control in the same donor. Data are shown as mean±SEM (n=6 in each treatment; error bars represent SEM). *p<0.05, **p<0.01, which denote statistical comparison between the two marked treatment groups (B-D). (E) Highly purified (≧99,5%) primary human NK cells were treated with 10 μM. PL-C in combination with various concentrations of IL-12 (10, 1, and 0.1 ng/mL) or IL-15 (100, 10, and 1 ng/mL) for 24 h to determine the levels of IFN-γ secretion. Representative data from one of three donors with the similar data are shown. *p<0.05, **p<0.01, which denote statistical comparison between the two marked treatment groups and are calculated from data of all tested donors. Error bars represent SD. […]
(A) Human […] were treated with DMSO vehicle control or 10 μM PL-C for 18 hours in the presence of IL-12 (10 ng/mL) or IL-15 (100 ng/mL), as described in FIG. 37C. […] (B) Purified primary NK cells were treated with IL-12 (10 ng/mL) or IL-15 (100 ng/mL) with or without 10 μM PL-C for 8 hours and were sequentially co-cultured with […] labeled ARH-77 cells at various effector/target cell ratios for additional 4 hours. ^51Cr release was measured by a TopCount counter. […]
On the technique in general: Quantitative PCR measures a nucleic acid by following its amplification.

The test system of series [2] is CCD-112CoN normal human colon cells. The experiment in a line: Cytotoxicity against CCD-112CoN cells.
Excerpt: Following a previous procedure (Still P C et al. J. Nat. Prod. 2013, 76, 243-249) and the method for screening cytotoxicity towards HT-29 cells mentioned above, the cytotoxicity of the samples was screened against CCD-112CoN normal human colon cells.
A short description of another series: Toxicity of PL-C in mice. The class given is in vivo. The following applies: up to 500 mg PL-C/kg body weight. From the text: The findings discussed herein provide an avenue to prevent or treat cancer using natural products and their derivatives through enhancing NK cell immuno-surveillance. […] Developing less toxic drugs is important for preventing or treating some cancers, especially thr those which are dominant in children or in elderly populations, such as AML AML primarily affects older adults: the median age at diagnosis is >65 years (Estey E and Milner H. Lancet 2006, 368, 18941907; Yanada M and Naoe T. Int. J. Hematol. 2012, 96, 186-193). The 5 year survival rate of AML in older adults remains under 10% (Stein E M and Tallman M S. Int J. Hematol 2012, 96, 164-170). Elderly AML patients are less able than younger patients to tolerate effective therapies such as intensive chemotherapy and allogeneic stem cell transplantation.

In the case of `COc1cc2c(OC3OCC(O)C(O)C3O)c3c(c(-c4ccc5c(c4)OCO5)c2cc1OC)C(=O)OC3` (stereo not drawn) [Compound 4, Phyllanthusmin C], in series [1] (alone or with IL-12 or IL-15), the “IFNG mRNA expression in NK cells” value is given as “induced IFN-γ gene (IFNG) expression at the transcriptional level”. Besides, the “mRNA expression of IL-12R and IL-15R chains” value in series [1] (cotreated with IL-12) was “downregulated mRNA expression of IL-12Rβ1, IL-12Rβ2, and IL-15Rα”. For the same compound, the “expression of cytotoxicity-associated genes (granzyme A, granzyme B, perforin, Fas ligand)” value in series [1] (with IL-12 or IL-15) is “unaffected”. Moreover, in series [2], the “cytotoxicity toward CCD-112CoN human normal colon cells (in words)” value is listed as “non-cytotoxic”. Moreover, the half-inhibitory concentration (IC50) in series [2] (read-out: IC50 values toward the CCD-112 CoN cells, Table 6) was > 100 µM. Moreover, the toxicity in mice result in the series “Toxicity of PL-C in mice” is given as “lack of substantial toxicities”.
